# Measurements published in ChEMBL document CHEMBL1649581, “Evaluation of target specificity of antibacterial agents using Staphylococcus aureus ddlA mutants and D-cycloserine in a silkworm infection model” (2009).
# Columns and labels:
# Format in all cases: functional
# Staphylococcus aureus [1] = assay: Antibacterial activity against Staphylococcus aureus TS10007 harboring ddlA Asp39Asn mutation after 20 hrs; settings: TS10007, 20 h
# Staphylococcus aureus [2] = assay: Antibacterial activity against Staphylococcus aureus TS5337 harboring ddlA Pro178Ser mutation after 20 hrs; settings: TS5337, 20 h
# Staphylococcus aureus [3] = assay: Antibacterial activity against Staphylococcus aureus TS2921 harboring ddlA Asp102Asn mutation in fifth-instar silkworm larva infection model assessed as compound concentration per gram of larva […] after 48 hrs post dose at 27 degC
# Staphylococcus aureus [4] = assay: Antibacterial activity against Staphylococcus aureus RN4220 after 20 hrs; settings: RN4220, 20 h
# Staphylococcus aureus [5] = assay: Antibacterial activity against Staphylococcus aureus RN4220 in fifth-instar silkworm larva infection model assessed as compound concentration per gram of larva […] after 48 hrs post dose at 27 degC
# Staphylococcus aureus [6] = assay: Antibacterial activity against Staphylococcus aureus TS2921 harboring ddlA Asp102Asn mutation in presence of 100 mM D-Ala-D-Ala, which complements temperature sensitivity after 20 hrs; settings: TS2921, 20 h
# Staphylococcus aureus [7] = assay: Antibacterial activity against Staphylococcus aureus TS2921 harboring ddlA Asp102Asn mutation after 20 hrs; settings: TS2921, 20 h
# Staphylococcus aureus [8] = assay: Antibacterial activity against Staphylococcus aureus TS10007 harboring ddlA Asp39Asn mutation in fifth-instar silkworm larva infection model assessed as compound concentration per gram of larva […] after 48 hrs post dose at 27 degC
# Staphylococcus aureus [9] = assay: Antibacterial activity against Staphylococcus aureus TS5337 harboring ddlA Pro178Ser mutation in fifth-instar silkworm larva infection model assessed as compound concentration per gram of larva […] after 48 hrs post dose at 27 degC
# Staphylococcus aureus [10] = assay: Antibacterial activity against Staphylococcus aureus TS2921 harboring ddlA Asp102Asn mutation and coexpressing pSddlA which complements temperature sensitivity after 20 hrs; settings: TS2921, 20 h
Compound,MIC (Staphylococcus aureus [1]),MIC (Staphylococcus aureus [2]),ED50 (Staphylococcus aureus [3]),MIC (Staphylococcus aureus [4]),ED50 (Staphylococcus aureus [5]),MIC (Staphylococcus aureus [6]),MIC (Staphylococcus aureus [7]),ED50 (Staphylococcus aureus [8]),ED50 (Staphylococcus aureus [9]),MIC (Staphylococcus aureus [10])
O=C(N[C@H](CO)[C@H](O)c1ccc([N+](=O)[O-])cc1)C(Cl)Cl [CHLORAMPHENICOL],3.1 µg/mL,3.1 µg/mL,5.3 µg,6.3 µg/mL,4.9 µg,3.1 µg/mL,3.1 µg/mL,,,
N[C@@H]1CONC1=O [CYCLOSERINE],50 µg/mL,25 µg/mL,<2.2 µg,100 µg/mL,40 µg,50 µg/mL,12.5 µg/mL,<2.2 µg,5.4 µg,> 100 µg/mL
CO[C@@]1(NC(=O)CSC(F)F)C(=O)N2C(C(=O)O)=C(CSc3nnnn3CCO)CO[C@@H]21 [FLOMOXEF],0.4 µg/mL,0.2 µg/mL,0.031 µg,0.4 µg/mL,0.054 µg,0.4 µg/mL,0.2 µg/mL,0.048 µg,0.031 µg,0.4 µg/mL
CCn1cc(C(=O)O)c(=O)c2cc(F)c(N3CCNCC3)cc21 [NORFLOXACIN],0.63 µg/mL,0.63 µg/mL,,0.63 µg/mL,,0.63 µg/mL,0.63 µg/mL,,,0.63 µg/mL
CN(C)[C@@H]1C(O)=C(C(N)=O)C(=O)[C@@]2(O)C(O)=C3C(=O)c4c(O)cccc4[C@@](C)(O)[C@H]3C[C@@H]12 [TETRACYCLINE],0.063 µg/mL,0.063 µg/mL,0.7 µg,0.063 µg/mL,0.68 µg,0.031 µg/mL,0.063 µg/mL,0.35 µg,0.75 µg,0.063 µg/mL
CN[C@H](CC(C)C)C(=O)N[C@H]1C(=O)N[C@@H](CC(N)=O)C(=O)N[C@H]2C(=O)N[C@H]3C(=O)N[C@H](C(=O)N[C@H](C(=O)O)c4cc(O)cc(O)c4-c4cc3ccc4O)[C@H](O)c3ccc(c(Cl)c3)Oc3cc2cc(c3O[C@@H]2O[C@H](CO)[C@@H](O)[C@H](O)[C@H]2O[C@H]2C[C@](C)(N)[C@H](O)[C@H](C)O2)Oc2ccc(cc2Cl)[C@H]1O [VANCOMYCIN],0.4 µg/mL,0.4 µg/mL,0.43 µg,0.4 µg/mL,0.53 µg,1.6 µg/mL,0.4 µg/mL,0.25 µg,0.45 µg,0.4 µg/mL
